Measurements reported in patent US20170114128A1, “USE OF TGF-BETA ANTAGONISTS OF TREAT TYPE-2 DIABETES” (ALBERT EINSTEIN COLLEGE OF MEDICINE, INC., priority 2014, published 2017).

Tests used:
normal C57BL/6 mice = assay: Hyperinsulinemic-euglycemic clamp after third-ventricle TGF-β1; type: in vivo
Text: Brain TGF-β excess increases hepatic glucose production: In physiology, blood glucose levels are balanced by glucose uptake in metabolic tissues (such as muscles) and glucose production in the liver. A hyperinsulinemic-euglycemic clamp was employed to analyze if any of these metabolic processes was relevant to the pro-diabetic effect of brain TGF-β excess. In the experiment, normal C57BL/6 mice were pre-implanted with a catheter into the jugular vein and also a cannula into the hypothalamic third ventricle. Following surgical recovery, overnight-fasted mice were injected with TGF-β1 (4 ng) using the same protocol as described in FIG. 1e, and were subjected to the clamp procedure. During the clamp period, blood glucose concentrations were maintained at approximate 120-130 mg/dl, with steady insulin infusion (4 mU kg^−1 min^−1) together with various rates of 20% glucose infusion to maintain euglycemia. […] While the basal blood insulin concentrations in TGF-β-injected mice were higher which indicated insulin resistance, constant insulin infusion in the clamp elevated the blood insulin concentrations of these mice and controls to similar levels. […] Blood glucagon concentrations were similar between TGF-β1-treated mice and controls. Therefore, the brain-liver axis mediates the pro-diabetic effect of brain TGF-β excess.
Hyperinsulinemic-euglycemic clamp. Mice that were pre-implanted with cannula in the third ventricle were anesthetized, and a catheter was inserted into the right jugular vein and crossed over from the underneath and out the back of the neck. Following surgical recovery, overnight-fasted mice were injected with TGF-β1 (4 ng) vs. vehicle, once at the beginning of fasting and the other in the following morning at four hours prior to clamp. Conscious mice were then subjected to euglycemic clamp, with the blood glucose concentrations maintained at 120-130 mg/dl for four hours, followed by steady-state human insulin infusion (4 mU kg−1 min−1) together with infusion of 20% glucose at variable rates to maintain euglycemia. During the final 1 hour of the clamp, [3-^3H] glucose and 2-deoxy-D-[1-^14C] glucose (PerkinElmer) infusions were used. Blood samples were collected from tail vein. At the end of the procedure, mice were euthanized, and various tissues were removed and quickly frozen in liquid nitrogen. Plasma insulin and glucagon concentrations were analyzed with ELISA kits (Crystal Chem. and R&D Systems).

[1] = test system: hypothalamic NF-κB signaling components; assay: Western blots of hypothalamic NF-κB signaling components after third-ventricle TGF-β1; type: in vivo, mice
Protocol: Induction of hypothalamic NF-κB activation by TGF-β: TGF-β is often appreciated for anti-inflammatory feature in immune response, but, depending on physiological context and particularly in pathological conditions, TGF-β can be inflammatory (28)—although it is atypical and many details are still unclear. Here, because NF-κB has been known to atypically mediate hypothalamic inflammation in obesity or aging (12-14,18-20,23-27), it was analyzed if NF-κB signaling components were different in the hypothalamus of mice with third-ventricle injection of TGF-β vs. vehicle. […] First, since IκBα loss is the specific step that immediately liberates cytoplasmic NF-κB for nuclear translocation, and NF-κB subunit RelA in the nucleus undergoes phosphorylation, RelA phosphorylation was measured in mice injected with TGF-β1 or vehicle. […] Second, it was evaluated if TGF-β1-triggered NF-κB activation could be involved in HFD-induced hypothalamic inflammation. By employing heterogeneous Tgfb1 knockout (Tgfb1 +/−) mice, whether haplodeficiency of Tgfb1 in this mouse model could affect the induction of hypothalamic inflammation by HFD feeding was examined To do so, adult Tgfb1+/− mice and littermate WT controls were subjected to HFD feeding for three weeks, and chow feeding was included to provide as dietary control. Indeed, hypothalamic Tgfb1 mRNA in chow-fed Tgfb1+/− mice dropped by ˜50% compared to chow-fed WT (FIG. 4b), which was consistent with the literature (35). […] Using these hypothalamic samples, we examined mRNA levels of a list of inflammation-related molecules including TNFα, IL-6, SOCS3, TLR4, PTP1B, PKCλ and PKCι. […] Therefore, brain TGF-β excess plays a role in inducing diet-induced hypothalamic inflammation.
Thus, while kinase (e.g., IKK)-induced IκBα phosphorylation is a crucial, rapid signaling reaction in classical inflammation, this process is not primarily critical in TGF-β1-induced hypothalamic inflammation.
To further assess this point, it was asked if the effects of brain TGF-β excess could be impaired by ablation of a signaling component, such as toll-like receptor-4 (TLR4) or myeloid differentiation primary response gene 88 (MyD88), because they employ kinase signaling to induce IκBα phosphorylation and thus NF-κB activation. […]
Protein, mRNA and peptide analyses. […] Quantification of Western blots was processed with Image J. Total RNA was extracted from hypothalamic tissue using TRIzol® (Invitrogen), and cDNA was synthesized using M-MLV RT System (Promega). Using SYBR® Green PCR Master Mix (Applied Biosystems), expression levels of target genes were analyzed via PCR amplification and quantification. […] Serum and CSF TGF-β content were measured using TGF-β ELISA kit (R&D Systems).

[2] = third-ventricle injection vs vehicle

TGF-β1: transforming growth factor-β1 (Sigma), cytokine dissolved in artificial cerebrospinal fluid for third-ventricle injection
glucose infusion rate, lower than vehicle-injected mice (normal C57BL/6 mice; 4 ng, clamp, insulin 4 mU kg^−1 min^−1, on average): 80% | hepatic glucose production vs control (normal C57BL/6 mice; basal condition): higher | basal blood insulin concentrations (normal C57BL/6 mice; basal, vs controls): higher | rates of glucose disposal vs vehicle (normal C57BL/6 mice; clamp, 4 ng): similar | suppression of hepatic glucose production by insulin infusion (normal C57BL/6 mice; during clamp): failed to do so | blood glucagon concentrations vs controls (normal C57BL/6 mice; mouse, in vivo): similar | glucose infusion rates vs vehicle-injected mice (normal C57BL/6 mice; since the first 20 min of clamp): significantly lower | hypothalamic TAK1 phosphorylation ([1]; mouse, in vivo): did not lead to hypothalamic TAK1 phosphorylation | phosphorylated levels of IκBα ([1]; normalized by IκBα protein levels): did not change | hypothalamic IκBα protein levels [1, 2]: significant reduction | hypothalamic RelA phosphorylation [1, 2]: significantly increased
